From patent publication US5589568A (priority 1994, dated 1996)
Where no end group is shown, it is not given here.

Assays:
[1] = system: Gi; experiment: release of [α-32P]GDP from Gi (GDP exchange); type: biochemical, rabbit; settings: GDP exchange assay; typical
Protocol: FIG. 1. Stimulation of GDP/GTP exchange by analogs of MP. The release of [α-^32 P]GDP from Gi was measured at 30° C. in the presence of the concentrations of several different MP analogs whose structures are listed in Table I: O, Mas7; Δ, Mas8; .tangle-solidup.Mas9; .quadrature., Mas19; .oval-solid., MP; .box-solid., MP-X; .gradient., MAS14; .tangle-soliddn., Mas6. First order dissociation rate constants (kdiss) were determined from duplicate four-point time courses as described under "Experimental Procedures."
Purification of αo and βγ was completed by chromatography on DEAE-Sephacel that was eluted with a gradient of 0-250 mM NaCl in the presence of 0.6% Lubrol and AMF. AMF was removed by chromatography on hydroxyapatite and Sephadex G-25 as described by Sternweis, et al., 1981, incorporated herein by reference. Gi was purified as the αβγ trimer from rabbit liver as reported by Bokoch, et al., 1984, incorporated herein by reference. The Gi used in this study could be recognized on a Western blot by anti-Gi -1 and anti-Gi -3 antibodies but not by anti-Gi -2 antibody, as documented by Mumby, et al., 1983, incorporated herein by reference. Purified recombinant αi,1 was synthesized in E. coli prepared to the specifications of Linder, incorporated herein by reference. During purification, G protein α subunits were assayed by [^35 S] GTPγ S binding according to the method of Higashijima, 1987, incorporated herein by reference). By subunits were assayed according to their ability to deactivate Gs, as detailed by Northup, 1983, incorporated herein by reference.
G proteins were reconstituted into phospholipid vesicles composed of dioleoyl-PC/bovine brain PS/1-palmitoyl,2-oleoyl-PE (3:4:3) as reported previously by Higashijima et al., 1988, incorporated herein by reference.
To measure the MP-catalyzed dissociation of [α-^32 P]GDP or [^35 S]-GTPγS, labeled nucleotide was first bound to G protein (approximately […] in 50 μl) by incubation of the Lubrol-solubilized G protein with a molar excess of nucleotide in assay buffer that contained 10 mM MgSO4 and 0.1% Lubrol. Incubation was for 20 min at 20° C. (for Go) or for 30 min at 30° C. (for Gi), In the case of [α-^32 P]GDP, EDTA was then added to 12 mM. […] Bound nucleotide was determined by binding to nitrocellulose filters as described (Ferguson, 1986), and incorporated herein by reference. […] Data were analyzed using a nonlinear least squares fitting program.

[2] = target: T1, Go (Bos taurus, UniProt P08239); experiment: steady state GTPase activity of Go in phospholipid vesicles; type: biochemical, bovine
T1 construct: proteins were extracted from bovine cerebral cortical membranes; from tissue; host or cells: bovine brain (cerebral cortical membranes)
T1 sequence (P08239 2-354 limits assumed): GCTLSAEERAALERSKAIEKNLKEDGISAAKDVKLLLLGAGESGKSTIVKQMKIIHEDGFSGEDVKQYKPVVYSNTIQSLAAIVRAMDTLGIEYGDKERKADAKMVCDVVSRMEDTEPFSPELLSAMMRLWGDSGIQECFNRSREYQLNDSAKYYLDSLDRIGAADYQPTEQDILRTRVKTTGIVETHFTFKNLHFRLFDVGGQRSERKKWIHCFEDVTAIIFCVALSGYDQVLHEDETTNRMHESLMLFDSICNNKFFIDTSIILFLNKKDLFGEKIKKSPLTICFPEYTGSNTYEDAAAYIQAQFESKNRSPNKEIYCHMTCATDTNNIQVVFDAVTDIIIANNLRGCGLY
T1 sequence (P62871 2-340 partner limits assumed): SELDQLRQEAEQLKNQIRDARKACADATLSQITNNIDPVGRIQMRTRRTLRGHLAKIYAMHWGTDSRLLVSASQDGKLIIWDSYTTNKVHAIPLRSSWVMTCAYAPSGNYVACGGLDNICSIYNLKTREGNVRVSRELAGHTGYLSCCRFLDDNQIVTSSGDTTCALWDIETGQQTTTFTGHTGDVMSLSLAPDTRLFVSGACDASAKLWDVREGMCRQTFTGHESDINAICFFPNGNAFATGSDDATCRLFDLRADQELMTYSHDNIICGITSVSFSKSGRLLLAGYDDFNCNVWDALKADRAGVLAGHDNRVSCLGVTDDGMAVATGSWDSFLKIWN
T1 sequence (P63212 2-68 partner limits assumed): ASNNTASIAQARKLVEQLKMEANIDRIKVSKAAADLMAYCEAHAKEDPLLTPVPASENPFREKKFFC
Protocol: Unless noted otherwise, assays of steady state GTP hydrolysis and of the binding and dissociation of guanine nucleotides were carried out in the buffer described previously, but without detergent and with 1.1 mM MgSO4 and the nucleotide specified in the text. When necessary, the concentration of free Mg^2+ was adjusted using EDTA buffers as described previously by Higashijima, 1987, and incorporated herein by reference.
Apparent affinity (af.) and apparent efficacy (ef.) were estimated by EC50 and maximum turnover number of GTPase activity.

[3] = system: Gi; experiment: steady state GTPase activity of Gi in phospholipid vesicles; type: biochemical, rabbit;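 further: Steady-state GTP hydrolysis by Gi measured in a detergent-free buffer containing 1.1 mM MgSO4 plus the specified guanine nucleotide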
[4] = target: Gs (Homo sapiens, UniProt P63092); experiment: steady state GTPase activity of Gs; type: biochemical; settings: Table IV; for EC50: read-out: Gs af. (apparent affinity, estimated by EC50 of GTPase activity)
Sequence of Gs (P63092 whole entry): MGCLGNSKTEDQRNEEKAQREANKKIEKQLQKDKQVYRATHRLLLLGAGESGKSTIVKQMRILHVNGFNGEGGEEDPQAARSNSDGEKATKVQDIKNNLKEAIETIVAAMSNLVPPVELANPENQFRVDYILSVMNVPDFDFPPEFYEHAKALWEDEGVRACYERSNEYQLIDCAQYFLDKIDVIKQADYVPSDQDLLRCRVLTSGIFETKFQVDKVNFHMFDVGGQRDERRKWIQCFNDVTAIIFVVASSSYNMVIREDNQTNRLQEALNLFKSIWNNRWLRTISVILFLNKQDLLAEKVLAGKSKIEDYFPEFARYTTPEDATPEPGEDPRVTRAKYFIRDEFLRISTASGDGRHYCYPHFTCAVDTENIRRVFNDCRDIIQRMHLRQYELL
Summary of the method: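 Steady-state GTP hydrolysis by Gs was run in buffer without detergent, with 1.1 mM MgSO4 and the specified nucleotide, and free Mg^2+ set with EDTA buffers where needed. Activity is expressed as molar turnover number. Apparent affinity and efficacy were estimated from the EC50 and the maximal turnover number of GTPase activity.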

[5] = circular dichroism, fractional helical content; type: physicochemical; settings: 20 μM peptide, pH 7.5, 25° C.
Protocol: CD spectra of peptides were measured using an Aviv model 60DS spectrometer at 25° C. in 1-mm pathlength cells. Spectra were scanned at 1 nm intervals for 3 s, and three scans were averaged. Peptides were dissolved at 20 μM in 5 mM Tris-Cl, pH 7.5, in the presence or absence of sonicated 1 mM 1-palmitoyl,2-oleoylphosphatidylcholine. Fractional helical content for each peptide was calculated according to the assumption that, for 100% helix and 14 peptide bonds, θ222 =36,000 (1-2.6/14).
Fractional helical contents of some of the peptides

[6] = system: muscarinic cholinergic receptor; type: binding, porcine
[7] = target: T1, Go; experiment: rate of hydrolysis of protein-bound [γ-32P]GTP; type: biochemical, bovine
Protocol: The rate of hydrolysis of protein-bound [γ^32 P]GTP was measured essentially as described previously (Higashijima, 1987) at 20° C. in assay medium that contained 2 ppm Lubrol 12A9. Go (10 nM) was incubated in assay medium for 16 min with 100 nM [γ-^32 P]GTP to allow nucleotide to bind. Hydrolysis was initiated by the addition of 1.3 mM MgSO4. Excess unlabeled GTP was also added such that only a single turnover was measured. The production of [^32 P]Pi was measured as described by Higashijima, 1987.

[8] = lytic capacity / toxicity of mastoparan-based peptides

CC[C@H](C)[C@H](N)C(=O)N[C@@H](CC(N)=O)C(=O)N[C@@H](CC(C)C)C(=O)N[C@@H](CCCCN)C(=O)N[C@@H](C)C(=O)N[C@@H](CC(C)C)C(=O)N[C@@H](C)C(=O)N[C@@H](C)C(=O)N[C@@H](CC(C)C)C(=O)N[C@@H](C)C(=O)N[C@@H](CCCCN)C(=O)N[C@@H](CCCCN)C(=O)N[C@H](C(=O)N[C@@H](CC(C)C)C(N)=O)[C@@H](C)CC [MP]
stimulation of Gi [1]: about 15 fold
EC50 [2]: 3 to 10 µM
GTPase Go 10 μM ([2]; 10 μM peptide, 15 min at 20° C., PE/PC/PS vesicles): 0.59 min⁻¹
GTPase Go 100 μM ([2]; 100 μM peptide, 15 min at 20° C., PE/PC/PS vesicles): 0.95 min⁻¹
Goo ef. (apparent efficacy, maximum turnover number of GTPase activity) ([2]; Table IV): E (Excellent (E): 30-10 fold)
GTPase Gi 10 μM ([3]; 10 μM peptide, 30 min at 30° C., PE/PC/PS vesicles): 0.19 min⁻¹
GTPase Gi 100 μM ([3]; 100 μM peptide, 30 min at 30° C., PE/PC/PS vesicles): 0.47 min⁻¹
stimulation of Gi ([3]; GTPase assay, typical): about 15 fold
G1 ef. (apparent efficacy, maximum turnover number of GTPase activity) ([3]; Table IV): E (Excellent (E): 30-10 fold)
EC50 ([3]; Table IV, read-out: G1 af. (apparent affinity, estimated by EC50 of GTPase activity)): 10 to 30 µM
Gs ef. (apparent efficacy, maximum turnover number of GTPase activity) [4]: F (Fair (F): 2-5 fold)
EC50 [4]: 3 to 10 µM
% α Helix - PC ([5]; absence of 1 mM phospholipid): 19%
% α Helix + PC ([5]; presence of 1 mM phospholipid): 61%
effect on affinity of the receptor for the antagonist [3H]QNB [6]: did not alter
effect on the receptor's affinity for acetylcholine ([6]; 30 μM peptide, […]): decreased the receptor's affinity for acetylcholine
effect on rate of hydrolysis of bound GTP [7]: did not alter

INLKALAALKKALL-NH2 [ER25]
EC50 [2]: 10 to 30 µM
EC50 [4]: 10 to 30 µM
toxicity (in words) [8]: least toxic
